Earlier results, collected in patent US11352671B2, “Predicting therapeutic response in Parkinson's disease” (Vanderbilt University, priority 2015, dated 2022).

Settings: in vivo

share that crosses the blood-brain barrier: 5-10%
Compound: N[C@@H](Cc1ccc(O)c(O)c1)C(=O)O [levodopa]
